Measured values as given in US10160755B2 (Plexxikon Inc., priority 2015, dated 2018).

molecular target: T1, FLT3-D835Y (Homo sapiens, UniProt P36888, D835Y); test: FLT3-D835Y biochemical kinase assay (AlphaScreen)
T1 construct: purchased Invitrogen PV3967
T1 sequence (P36888 27-993 D835Y): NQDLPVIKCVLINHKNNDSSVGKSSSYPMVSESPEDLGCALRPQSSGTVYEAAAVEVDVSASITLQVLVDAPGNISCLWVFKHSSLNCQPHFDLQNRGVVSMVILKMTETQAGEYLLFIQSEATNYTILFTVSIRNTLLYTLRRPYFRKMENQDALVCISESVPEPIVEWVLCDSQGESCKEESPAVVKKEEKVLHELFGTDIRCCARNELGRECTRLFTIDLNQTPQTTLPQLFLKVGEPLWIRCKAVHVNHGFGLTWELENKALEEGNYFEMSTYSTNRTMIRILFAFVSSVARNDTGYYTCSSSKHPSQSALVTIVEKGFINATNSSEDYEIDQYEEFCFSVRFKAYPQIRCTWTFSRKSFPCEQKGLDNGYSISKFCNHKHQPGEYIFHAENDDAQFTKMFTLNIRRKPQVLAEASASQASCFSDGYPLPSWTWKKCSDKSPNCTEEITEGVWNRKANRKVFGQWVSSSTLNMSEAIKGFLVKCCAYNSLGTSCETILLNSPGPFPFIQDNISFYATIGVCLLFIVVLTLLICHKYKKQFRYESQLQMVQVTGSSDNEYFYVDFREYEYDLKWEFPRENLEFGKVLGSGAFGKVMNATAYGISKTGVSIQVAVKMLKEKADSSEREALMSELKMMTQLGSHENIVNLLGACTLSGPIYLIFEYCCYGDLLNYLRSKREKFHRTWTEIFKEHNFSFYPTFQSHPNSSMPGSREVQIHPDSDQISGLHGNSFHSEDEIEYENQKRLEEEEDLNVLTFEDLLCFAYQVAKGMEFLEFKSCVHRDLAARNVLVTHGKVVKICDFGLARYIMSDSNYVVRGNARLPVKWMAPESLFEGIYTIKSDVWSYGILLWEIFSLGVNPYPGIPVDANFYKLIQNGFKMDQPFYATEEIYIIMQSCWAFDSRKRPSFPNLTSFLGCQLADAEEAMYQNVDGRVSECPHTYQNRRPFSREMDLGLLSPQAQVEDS
Description: (§1) In order to determine the effect of compounds on FLT3 catalytic activity, kinase assays using recombinant enzymes and AlphaScreen® technology have been established. When the kinases are catalytically active, they phosphorylate a biotinylated peptide substrate on tyrosine residues. Using AlphaScreen® technology, the ability of the compounds to affect the catalytic activity of the kinases can be measured quantitatively. The peptide substrate is immobilized by the AlphaScreen® Streptavidin Donor beads and, upon phosphorylation by a tyrosine kinase, can bind to AlphaScreen® Anti-Phosphotyrosine (PY20) Acceptor beads. Upon excitation of these beads with laser light at 680 nm, singlet oxygen is produced. This singlet oxygen is rapidly quenched, unless the AlphaScreen® Anti-Phosphotyrosine (PY20) Acceptor beads are in close proximity, in which case a proximity signal can be measured at 580 nm. In the presence of catalytic activity, there is a very strong proximity signal. Selective kinase inhibitors affect a decrease in this proximity signal through a decrease in tyrosine phosphorylation of the peptide substrate.
(§2) Substrate • Poly (Glu4-Tyr) Peptide, biotin conjugate [Biotin-GG(EEEEY)10EE (SEQ ID NO: 4)] • UBI/Millipore #12-440 • Final concentration=30 nM
(§3) Adenosine Triphosphate (ATP) • Sigma #A-3377 • Final concentration for IC50 determination=10 μM (FLT3-D835Y) or 100 μM (FLT3 or FLT3-ITD) • Detection Reagent • AlphaScreen® Phosphotyrosine (PY20) Assay Kit • Perkin-Elmer #6760601M • Final concentration=10 μg/mL
(§4) Centrifuge 1 minute, shake to mix, and incubate as follows:
(§5) • Mix Streptavidin Donor beads at 6× final concentration in Stop/Detection buffer. • Add 5 μL Streptavidin Donor beads to the reaction plate. Centrifuge 1 minute, shake to mix, and incubate at room temperature for 20 minutes. • Mix Anti-Phosphotyrosine (PY20) Acceptor beads at 6× final concentration in Stop/Detection buffer. • Add 5 μL Anti-Phosphotyrosine (PY20) beads to the reaction plate. • Centrifuge 1 minute, shake to mix, and incubate at room temperature for 60 minutes. • Read plate on Wallac EnVision™ 2103 Multilabel Reader. In Vivo Model System Testing

| SMILES | IC50 |
| --- | --- |
| Cn1cnc2ccc(-c3c[nH]c4ncc(-c5ccc(S(=O)(=O)N6CCCC6)cc5)nc34)cc21 [P-148, 7-(3-methylbenzimidazol-5-yl)-2-(4-pyrrolidin-1-ylsulfonylphenyl)-5H-pyrrolo[2,3-b]pyrazine] | 0.0001 to 1 µM |
| O=S(=O)(c1ccc(-c2cnc3[nH]cc(-c4ccc5ncsc5c4)c3n2)cc1)N1CCCC1 [P-160, 6-[2-(4-pyrrolidin-1-ylsulfonylphenyl)-5H-pyrrolo[2,3-b]pyrazin-7-yl]-1,3-benzothiazole] | 0.0001 to 1 µM |
| Cn1cnc2ccc(-c3c[nH]c4ncc(-c5ccc(Cl)c(C#N)c5)cc34)cc21 [P-140, 2-chloro-5-[3-(3-methylbenzimidazol-5-yl)-1H-pyrrolo[2,3-b]pyridin-5-yl]benzonitrile] | 0.0001 to 1 µM |
| CC(C)S(=O)(=O)Nc1cccc(-c2cnc3[nH]cc(-c4ccc5ncsc5c4)c3n2)c1 [P-184, N-[3-[7-(1,3-benzothiazol-6-yl)-5H-pyrrolo[2,3-b]pyrazin-2-yl]phenyl]propane-2-sulfonamide] | 0.0001 to 1 µM |
| N#Cc1cc(-c2cnc3[nH]cc(-c4ccc5ncn(-c6ccc(F)cc6)c5c4)c3c2)ccc1F [P-209, 2-fluoro-5-[3-[3-(4-fluorophenyl)benzimidazol-5-yl]-1H-pyrrolo[2,3-b]pyridin-5-yl]benzonitrile] | 0.0001 to 1 µM |
| COc1cnc2[nH]cc(-c3ccc4[nH]ncc4c3)c2c1 [P-003, 3-(1H-indazol-5-yl)-5-methoxy-1H-pyrrolo[2,3-b]pyridine] | 1 to 10 µM |
| COc1cc(-c2cnc3[nH]cc(-c4ccc5ncsc5c4)c3n2)ccc1C#N [P-183, 4-[7-(1,3-benzothiazol-6-yl)-5H-pyrrolo[2,3-b]pyrazin-2-yl]-2-methoxy-benzonitrile] | 0.0001 to 1 µM |
| COc1cc(-c2cnc3[nH]cc(-c4ccc5ncsc5c4)c3n2)cc(OC)n1 [P-172, 6-[2-(2,6-dimethoxy-4-pyridyl)-5H-pyrrolo[2,3-b]pyrazin-7-yl]-1,3-benzothiazole] | 0.0001 to 1 µM |
| COc1cc(-c2cnc3[nH]cc(-c4ccc5ncn(-c6ccc(F)cc6)c5c4)c3n2)cc(OC)n1 [P-205, 2-(2,6-dimethoxy-4-pyridyl)-7-[3-(4-fluorophenyl)benzimidazol-5-yl]-5H-pyrrolo[2,3-b]pyrazine] | 0.0001 to 1 µM |
| COc1cc(-c2cnc3[nH]cc(-c4ccc5ncn(-c6ccc(F)cc6)c5c4)c3c2)cc(OC)n1 [P-198, 5-(2,6-dimethoxy-4-pyridyl)-3-[3-(4-fluorophenyl)benzimidazol-5-yl]-1H-pyrrolo[2,3-b]pyridine] | 0.0001 to 1 µM |
| COc1cc(-c2cnc3[nH]c(C)c(-c4ccc5ncn(C)c5c4)c3c2)ccn1 [P-112, 5-(2-methoxy-4-pyridyl)-2-methyl-3-(3-methylbenzimidazol-5-yl)-1H-pyrrolo[2,3-b]pyridine] | 0.0001 to 1 µM |
| CC(C)(C)n1cnc2ccc(-c3c[nH]c4ncc(NS(=O)(=O)c5cccc(C#N)c5)cc34)cc21 [P-233, N-[3-(3-tert-butylbenzimidazol-5-yl)-1H-pyrrolo[2,3-b]pyridin-5-yl]-3-cyano-benzenesulfonamide] | 0.0001 to 1 µM |
| O=S(=O)(c1cccc(-c2cnc3[nH]cc(-c4ccc5ncsc5c4)c3n2)c1)N1CCCC1 [P-171, 6-[2-(3-pyrrolidin-1-ylsulfonylphenyl)-5H-pyrrolo[2,3-b]pyrazin-7-yl]-1,3-benzothiazole] | 0.0001 to 1 µM |
| Cn1cc(-c2cnc3[nH]cc(-c4ccc5ncsc5c4)c3n2)ccc1=O [P-182, 5-[7-(1,3-benzothiazol-6-yl)-5H-pyrrolo[2,3-b]pyrazin-2-yl]-1-methyl-pyridin-2-one] | 0.0001 to 1 µM |

molecular target: T2, FLT3-ITD (Homo sapiens, UniProt P36888); test: FLT3-ITD biochemical kinase assay (AlphaScreen)
T2 construct: FLT3-ITD; Invitrogen #PV6190
T2 sequence (P36888 1-993): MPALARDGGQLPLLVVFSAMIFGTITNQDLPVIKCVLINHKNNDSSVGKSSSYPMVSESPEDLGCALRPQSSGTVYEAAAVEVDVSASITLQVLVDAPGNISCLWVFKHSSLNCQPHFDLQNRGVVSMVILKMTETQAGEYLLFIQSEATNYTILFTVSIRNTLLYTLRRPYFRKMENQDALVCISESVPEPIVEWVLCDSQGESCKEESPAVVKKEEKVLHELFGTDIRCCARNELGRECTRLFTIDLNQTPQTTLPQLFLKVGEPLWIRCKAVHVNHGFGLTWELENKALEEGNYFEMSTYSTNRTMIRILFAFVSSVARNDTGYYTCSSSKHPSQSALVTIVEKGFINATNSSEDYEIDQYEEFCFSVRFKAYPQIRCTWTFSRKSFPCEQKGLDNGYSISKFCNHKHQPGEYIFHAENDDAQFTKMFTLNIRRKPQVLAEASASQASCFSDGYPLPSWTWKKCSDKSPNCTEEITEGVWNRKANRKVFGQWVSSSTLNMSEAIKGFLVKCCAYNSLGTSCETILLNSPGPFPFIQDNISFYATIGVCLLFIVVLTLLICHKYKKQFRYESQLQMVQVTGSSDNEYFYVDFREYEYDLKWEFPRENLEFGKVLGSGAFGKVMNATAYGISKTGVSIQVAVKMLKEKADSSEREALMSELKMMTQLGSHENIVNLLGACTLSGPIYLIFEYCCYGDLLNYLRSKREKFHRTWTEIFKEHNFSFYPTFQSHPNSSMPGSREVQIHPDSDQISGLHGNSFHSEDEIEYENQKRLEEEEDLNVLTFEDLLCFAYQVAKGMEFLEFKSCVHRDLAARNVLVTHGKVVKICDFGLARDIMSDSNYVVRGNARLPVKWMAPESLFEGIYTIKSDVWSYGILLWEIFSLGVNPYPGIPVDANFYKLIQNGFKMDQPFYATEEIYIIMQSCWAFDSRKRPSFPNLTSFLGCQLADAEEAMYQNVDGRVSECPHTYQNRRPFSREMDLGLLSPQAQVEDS
Description: as §1, §2, §3, §4, §5

| SMILES | IC50 |
| --- | --- |
| COCCOc1cncc(-c2cnc3[nH]cc(-c4ccc5ncn(C(C)(C)C)c5c4)c3c2)c1 [P-368, 1-tert-butyl-6-[5-[5-(2-methoxyethoxy)-3-pyridyl]-1H-pyrrolo[2,3-b]pyridin-3-yl]benzimidazole] | 0.0001 to 1 µM |
| Cc1cc(-c2cnc3[nH]cc(-c4ccc5ncn(C(C)(C)C)c5c4)c3n2)ccn1 [P-403, 7-(3-tert-butylbenzimidazol-5-yl)-2-(2-methyl-4-pyridyl)-5H-pyrrolo[2,3-b]pyrazine] | 0.0001 to 1 µM |
| Cc1ncc(-c2cnc3[nH]cc(-c4ccc5ncn(C(C)(C)C)c5c4)c3c2)cn1 [P-395, 1-tert-butyl-6-[5-(2-methylpyrimidin-5-yl)-1H-pyrrolo[2,3-b]pyridin-3-yl]benzimidazole] | 0.0001 to 1 µM |
| CC(C)(C)n1cnc2ccc(-c3c[nH]c4ncc(-c5cnc(N)nc5)cc34)cc21 [P-397, 5-[3-(3-tert-butylbenzimidazol-5-yl)-1H-pyrrolo[2,3-b]pyridin-5-yl]pyrimidin-2-amine] | 0.0001 to 1 µM |
| Cc1cc(-c2cnc3[nH]cc(-c4ccc5ncn(C(C)(C)C)c5c4)c3c2)cnc1F [P-394, 1-tert-butyl-6-[5-(6-fluoro-5-methyl-3-pyridyl)-1H-pyrrolo[2,3-b]pyridin-3-yl]benzimidazole] | 0.0001 to 1 µM |
| CC(C)(C)n1cnc2ccc(-c3c[nH]c4ncc(-c5cnc(C#N)nc5)cc34)cc21 [P-396, 5-[3-(3-tert-butylbenzimidazol-5-yl)-1H-pyrrolo[2,3-b]pyridin-5-yl]pyrimidine-2-carbonitrile] | 0.0001 to 1 µM |
| CC(C)(C)n1cnc2ccc(-c3c[nH]c4ncc(-c5cncc(NS(C)(=O)=O)c5)cc34)cc21 [P-371, N-[5-[3-(3-tert-butylbenzimidazol-5-yl)-1H-pyrrolo[2,3-b]pyridin-5-yl]-3-pyridyl]methanesulfonamide] | 0.0001 to 1 µM |
| Cc1ncc(-c2cnc3[nH]cc(-c4ccc5ncn(C(C)(C)C)c5c4)c3c2)cc1F [P-392, 1-tert-butyl-6-[5-(5-fluoro-6-methyl-3-pyridyl)-1H-pyrrolo[2,3-b]pyridin-3-yl]benzimidazole] | 0.0001 to 1 µM |
